From patent US6410555B1, “Tetrahydronaphthyridinyl-carboxamides having anti-convulsant activity” (SmithKline Beecham p.l.c., priority 1998, dated 2002)

Tested on: maximal (tonic hindlimb extension) electroshock seizures in male rats
Test: Maximal electroshock seizure (MEST) threshold test, rat model
Format: in vivo
Details: 2 mg/kg p.o. at 2 h
Description: The maximal electroshock seizure (MEST) threshold test in rodents is particularly sensitive for detecting potential anti convulsant properties ^1. In this model anticonvulsant agents elevate the threshold to electrically-induced seizures whilst proconvulsants lower the seizure threshold. […] The threshold for maximal (tonic hindlimb extension) electroshock seizures in male rats (Sprague Dawley, 80-150 g 6 weeks old) was determined by a Hugo Sachs Electronik stimulator which delivered a constant current (0.3 sec duration; from 1-30 mA in steps of […]). The procedure is similar to that outlined above for mouse and full details are as published by Upton et al,.^4 The percentage increase or decrease in CC50 for each group compared to the control is calculated. […]

| Compound | percentage increase in CC50 compared to the control |
| --- | --- |
| COc1ccc(C(=O)Nc2cnc3c(c2)CN(C)CC3(C)C)cc1C(F)(F)F.Cl [Example 3, N-(5,6,7,8-Tetrahydro-6,8,8-trimethyl[1,6]naphthyridin-3-yl)-4-methoxy-3-trifluoromethylbenzamide Hydrochloride] | 314% |
| CCOc1ccc(C(=O)Nc2cnc3c(c2)CN(C)CC3(C)C)cc1Br.Cl [Example 5, N-(5,6,7,8-Tetrahydro-6,8,8-trimethyl[1,6]naphthyridin-3-yl)-3-bromo-4-ethoxybenzamide Hydrochloride] | 350% |
